The results in this text go back to patent publication US8202881B2, “JAK2 inhibitors and their use for the treatment of myeloproliferative diseases and cancer” (Bristol-Meyers Squibb Company, priority 2009, dated 2012).

In assay [1] the target is JAK2 (Homo sapiens, UniProt O60674). Put plainly: JAK2 Tyrosine Kinase Assay. It is filed as biochemical. Particulars: for pIC50: ATP 30 μM, JAK2 1 nM, 60 min room temperature. Here is the method:
JAK2 Tyrosine Kinase Assay
The assays were performed in V-bottom 384-well plates. The final assay volume was 30 μL prepared from 15 μL additions of enzyme and substrates (fluoresceinated peptide and ATP) and test compounds in assay buffer (100 mM HEPES pH 7.4, 10 mM MgCl2, 25 mM Beta-Glycerolphosphate, 0.015% Brij35 and 4 mM DTT). The reaction was initiated by the combination of JAK2 with substrates and test compounds. The reaction was incubated at room temperature for 60 min. and terminated by adding 45 μL of 35 mM EDTA to each sample. The reaction mixture was analyzed on the Caliper LabChip 3000 by electrophoretic separation of the fluorescent substrate and phosphorylated product. Inhibition data were calculated by comparison to no enzyme control reactions for 100% inhibition and vehicle-only reactions for 0% inhibition. The final concentration of reagents in the assays is ATP, 30 μM; JAK2 fluorescent peptide, 1.5 μM; JAK2, 1 nM; and DMSO, 1.6%. Dose response curves were generated to determine the concentration required inhibiting 50% of kinase activity (IC50). Compounds were dissolved at 10 mM in dimethylsulfoxide (DMSO) and evaluated at eleven concentrations, each in duplicate. IC50 values were derived by non-linear regression analysis

In assay [2] the test system is SET-2 cells. The assay is described as follows: Cell Proliferation Inhibition Assay (3H-thymidine incorporation). It is filed as cell-based. Conditions: Homo sapiens, 72 h with compound. As for the experimental part:
Cell Proliferation Inhibition Assay
Compounds were evaluated for their ability to inhibit cell proliferation, using an assay that measures thymidine incorporation in the DNA of the dividing cell, which is directly correlated with cell numbers. SET-2 cells were plated at 10000 cells/well in 96-well plates and were cultured for 24 h in RPMI-1640 supplemented with 20% fetal bovine serum, before test compounds were added. Compounds were diluted in culture medium such that the final concentration of dimethyl sulfoxide never exceeded 0.1%. Following the addition of compounds, the cells were cultured for an additional 72 h before cell proliferation was determined by measuring DNA synthesis with 3H-thymidine incorporation.
A general note: Incorporation of labelled thymidine or its analogues reports DNA synthesis.

Structures are written as SMILES. pIC50: −log10 of the molar value.

JAK2, sequence (O60674 whole entry): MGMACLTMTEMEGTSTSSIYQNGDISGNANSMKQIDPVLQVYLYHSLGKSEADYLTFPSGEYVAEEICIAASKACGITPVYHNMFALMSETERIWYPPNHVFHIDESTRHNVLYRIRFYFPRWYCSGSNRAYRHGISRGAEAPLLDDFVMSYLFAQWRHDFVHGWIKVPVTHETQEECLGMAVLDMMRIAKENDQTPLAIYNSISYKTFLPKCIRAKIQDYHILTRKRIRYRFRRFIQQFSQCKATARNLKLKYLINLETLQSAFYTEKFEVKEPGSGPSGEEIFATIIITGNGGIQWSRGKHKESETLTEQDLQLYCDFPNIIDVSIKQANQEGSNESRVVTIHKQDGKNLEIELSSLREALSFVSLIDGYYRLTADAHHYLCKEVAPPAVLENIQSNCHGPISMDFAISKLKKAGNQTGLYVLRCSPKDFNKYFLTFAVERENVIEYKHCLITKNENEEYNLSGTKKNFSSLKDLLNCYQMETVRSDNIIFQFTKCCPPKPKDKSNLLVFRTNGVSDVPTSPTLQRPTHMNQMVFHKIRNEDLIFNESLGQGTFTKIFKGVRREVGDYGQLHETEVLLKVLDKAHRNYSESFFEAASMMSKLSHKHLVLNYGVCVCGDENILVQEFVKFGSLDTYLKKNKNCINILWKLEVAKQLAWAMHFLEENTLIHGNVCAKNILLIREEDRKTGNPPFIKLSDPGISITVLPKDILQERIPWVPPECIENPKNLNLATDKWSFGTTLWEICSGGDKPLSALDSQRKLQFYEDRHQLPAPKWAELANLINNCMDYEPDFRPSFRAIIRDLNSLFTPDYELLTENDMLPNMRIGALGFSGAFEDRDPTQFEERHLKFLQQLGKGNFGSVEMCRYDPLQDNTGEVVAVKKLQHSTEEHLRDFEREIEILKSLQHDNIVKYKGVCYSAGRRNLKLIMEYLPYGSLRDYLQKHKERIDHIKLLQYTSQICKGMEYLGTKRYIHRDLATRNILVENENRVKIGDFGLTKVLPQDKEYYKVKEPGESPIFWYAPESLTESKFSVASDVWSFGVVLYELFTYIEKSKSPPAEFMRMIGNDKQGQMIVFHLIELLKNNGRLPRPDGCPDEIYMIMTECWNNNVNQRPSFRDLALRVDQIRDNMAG

For `CCn1c(C(=O)N(C2CC2)C2CC2)cc2c3c(ncn3C)c(Nc3nc(CF)cs3)nc21` [Example 3, N,N-dicyclopropyl-6-ethyl-4-(4-(fluoromethyl)thiazol-2-ylamino)-1-methyl-1,6-dihydroimidazo[4,5-d]pyrrolo[2,3-b]pyridine-7-carboxamide], the values for the pIC50 in assay [1] and in assay [2] were 8.82 and 8.00, respectively.

For `CCn1c(C(=O)N(C2CC2)C2CC2)cc2c3c(ncn3C)c(Nc3nc(C(C)(C)C)cs3)nc21` [Example 4, 4-(4-tert-butylthiazol-2-ylamino)-N,N-dicyclopropyl-6-ethyl-1-methyl-1,6-dihydroimidazo[4,5-d]pyrrolo[2,3-b]pyridine-7-carboxamide], the pIC50 is 7.52 in assay [1] and 5.60 in assay [2].

Take `CCn1c(C(=O)N(C2CC2)C2CC2)cc2c3c(ncn3C)c(Nc3nc(C(=O)NC4CCS(=O)(=O)C4)cs3)nc21` (stereo not shown) [Example 15, N,N-dicyclopropyl-4-((4-((1,1-dioxidotetrahydro-3-thiophenyl)carbamoyl)-1,3-thiazol-2-yl)amino)-6-ethyl-1-methyl-1,6-dihydroimidazo[4,5-d]pyrrolo[2,3-b]pyridine-7-carboxamide]: the pIC50 was 8.82 in assay [1] and 6.31 in assay [2].

Regarding `CCn1c(C(=O)N(C2CC2)C2CC2)cc2c3c(ncn3C)c(Nc3nc(C(F)(F)F)c(C)s3)nc21` [Example 29, N,N-dicyclopropyl-6-ethyl-1-methyl-4-(5-methyl-4-(trifluoromethyl)thiazol-2-ylamino)-1,6-dihydroimidazo[4,5-d]pyrrolo[2,3-b]pyridine-7-carboxamide], the pIC50 in assay [1] is 8.00; in assay [2] it was 5.00.

With `CCn1c(C(=O)N(C2CC2)C2CC2)cc2c3c(ncn3C)c(Nc3nc4c(s3)CS(=O)(=O)CC4)nc21` [Example 33, 4-(5,5-dioxo-4,5,6,7-tetrahydro-5λ^6-thiopyrano[4,3-d]thiazol-2-ylamino)-6-ethyl-1-methyl-1,6-dihydro-1,3,5,6-tetraaza-as-indacene-7-carboxylic acid dicyclopropylamide], the pIC50 in assay [1] was 9.20; in assay [2], 8.00.

`CCn1c(C(=O)N(C2CC2)C2CC2)cc2c3c(ncn3C)c(Nc3nc(C)c(C(C)=O)s3)nc21` [Example 34, 4-(5-acetyl-4-methylthiazol-2-ylamino)-N,N-dicyclopropyl-6-ethyl-1-methyl-1,6-dihydroimidazo[4,5-d]pyrrolo[2,3-b]pyridine-7-carboxamide]: the pIC50 is 8.82 in assay [1] and 6.62 in assay [2].

On to `CCn1c(C(=O)N(C2CC2)C2CC2)cc2c3c(ncn3C)c(Nc3nc4cc[nH]c(=O)c4s3)nc21` [Example 35, N,N-dicyclopropyl-6-ethyl-1-methyl-4-(4-oxo-4,5-dihydrothiazolo[5,4-c]pyridin-2-ylamino)-1,6-dihydroimidazo[4,5-d]pyrrolo[2,3-b]pyridine-7-carboxamide], for which the results for the pIC50 in assay [1] and in assay [2] were 9.27 and 5.55, respectively.

With `CCn1c(C(=O)N(C2CC2)C2CC2)cc2c3c(ncn3C)c(Nc3ncc(C#N)s3)nc21` [Example 38, 4-(5-cyanothiazol-2-ylamino)-N,N-dicyclopropyl-6-ethyl-1-methyl-1,6-dihydroimidazo[4,5-d]pyrrolo[2,3-b]pyridine-7-carboxamide], the pIC50 was 7.40 in assay [1] and 7.22 in assay [2].

For the compound `CCNC(=O)c1nc(Nc2nc3c(cc(C(=O)N(C4CC4)C4CC4)n3CC)c3c2ncn3C)sc1C` [Example 49, 2-(7-(dicyclopropylcarbamoyl)-6-ethyl-1-methyl-1,6-dihydroimidazo[4,5-d]pyrrolo[2,3-b]pyridine-4-ylamino)-N-ethyl-5-methylthiazole-4-carboxamide], the pIC50 was 7.30 in assay [1] and 5.41 in assay [2].

Turning to `CCn1c(C(=O)N(C2CC2)C2CC2)cc2c3c(ncn3C)c(Nc3nc(C)c(C(=O)NCCOC)s3)nc21` [Example 53, 2-(7-(dicyclopropylcarbamoyl)-6-ethyl-1-methyl-1,6-dihydroimidazo[4,5-d]pyrrolo[2,3-b]pyridin-4-ylamino)-N-(2-methoxyethyl)-4-methylthiazole-5-carboxamide], the pIC50 in assay [1] is 8.83; in assay [2], 7.00.

`CCn1c(C(=O)N(C2CC2)C2CC2)cc2c3c(ncn3C)c(Nc3nc(C)c(C(=O)N4CCC4)s3)nc21` [Example 55, 4-(5-(azetidine-1-carbonyl)-4-methylthiazol-2-ylamino)-N,N-dicyclopropyl-6-ethyl-1-methyl-1,6-dihydroimidazo[4,5-d]pyrrolo[2,3-b]pyridine-7-carboxamide]: the pIC50 in assay [1] is 9.13; in assay [2], 8.37.

For the compound `CCn1c(C(=O)N(C2CC2)C2CC2)cc2c3c(ncn3C)c(Nc3nc(C)c(C(=O)NCC#N)s3)nc21` [Example 61, 4-((5-((cyanomethyl)carbamoyl)-4-methyl-1,3-thiazol-2-yl)amino)-N,N-dicyclopropyl-6-ethyl-1-methyl-1,6-dihydroimidazo[4,5-d]pyrrolo[2,3-b]pyridine-7-carboxamide], in assay [1], the pIC50 was 9.12.

As for `CCn1c(C(=O)N(C2CC2)C2CC2)cc2c3c(ncn3C)c(Nc3nc(C)c(C(=O)N4CCS(=O)(=O)CC4)s3)nc21` [Example 70], the pIC50 in assay [1] was 9.13; in assay [2] it was 6.48.

Consider `CCn1c(C(=O)N(C2CC2)C2CC2)cc2c3c(ncn3C)c(Nc3cc(C)n(C)n3)nc21` [Example 73, N,N-dicyclopropyl-4-(1,5-dimethyl-1H-pyrazol-3-ylamino)-6-ethyl-1-methyl-1,6-dihydroimidazo[4,5-d]pyrrolo[2,3-b]pyridine-7-carboxamide], for which the figures for the negative logarithm of the IC50 (pIC50) in assay [1] and in assay [2] were 9.00 and 7.22, respectively.

Regarding `CCn1c(C(=O)N(C2CC2)C2CC2)cc2c3c(ncn3C)c(Nc3cc(C)n(C4CCC4)n3)nc21` [Example 81, 4-(1-cyclobutyl-5-methyl-1H-pyrazol-3-ylamino)-N,N-dicyclopropyl-6-ethyl-1-methyl-1,6-dihydroimidazo[4,5-d]pyrrolo[2,3-b]pyridine-7-carboxamide], the pIC50 in assay [1] was 7.82; in assay [2], 6.47.

In the case of `CCn1c(C(=O)N(C2CC2)C2CC2)cc2c3c(ncn3C)c(Nc3cnn(C)c3)nc21` [Example 98, N,N-dicyclopropyl-6-ethyl-1-methyl-4-(1-methyl-1H-pyrazol-4-ylamino)-1,6-dihydroimidazo[4,5-d]pyrrolo[2,3-b]pyridine-7-carboxamide], the pIC50 in assay [1] was 9.16; in assay [2] it was 8.13.

Take `CCn1nc(Nc2nc3c(cc(C(=O)N(C4CC4)C4CC4)n3CC)c3c2ncn3C)cc1C(=O)O` [Example 101, 3-(7-(dicyclopropylcarbamoyl)-6-ethyl-1-methyl-1,6-dihydroimidazo[4,5-d]pyrrolo[2,3-b]pyridin-4-ylamino)-1-ethyl-1H-pyrazole-5-carboxylic acid]: the pIC50 in assay [1] was 9.13; in assay [2] it was 5.00.

With `CCn1nc(Nc2nc3c(cc(C(=O)N(C4CC4)C4CC4)n3CC)c3c2ncn3C)cc1C(=O)NCCNC(C)=O` [Example 109, 4-((5-((2-acetamidoethyl)carbamoyl)-1-ethyl-1H-pyrazol-3-yl)amino)-N,N-dicyclopropyl-6-ethyl-1-methyl-1,6-dihydroimidazo[4,5-d]pyrrolo[2,3-b]pyridine-7-carboxamide], the pIC50 in assay [1] was 8.82; in assay [2], 5.38.

Turning to `CCn1c(C(=O)N(C2CC2)C2CC2)cc2c3c(ncn3C)c(Nc3cc(CN4CCOCC4)n(C)n3)nc21` [Example 116, N,N-dicyclopropyl-6-ethyl-1-methyl-4-(1-methyl-5-(morpholinomethyl)-1H-pyrazol-3-ylamino)-1,6-dihydroimidazo[4,5-d]pyrrolo[2,3-b]pyridine-7-carboxamide], the pIC50 in assay [1] is 8.83; in assay [2] it was 6.77.

As for `CCn1c(C(=O)N(C2CC2)C2CC2)cc2c3c(ncn3C)c(Nc3nc(C)n(C)n3)nc21` [Example 125, N,N-dicyclopropyl-4-(1,5-dimethyl-1H-1,2,4-triazol-3-ylamino)-6-ethyl-1-methyl-1,6-dihydroimidazo[4,5-d]pyrrolo[2,3-b]pyridine-7-carboxamide], the pIC50 was 7.30 in assay [1] and 5.90 in assay [2].

With `CCNC(=O)c1cc2c(nc(NC)c3ncn(C)c32)[nH]1` [Example No. A171, reference compound], the “activity against JAK2” value in assay [1] (result in words) is recorded as “weak activity”.

What is called pIC50 is the negative decadic logarithm of the IC50, by convention in mol/L.
